In ChEMBL document CHEMBL6134779, “Design of Proteolytic-Resistant Antifungal Peptides by Utilizing Minimum d-Amino Acid Ratios” (J Med Chem, 2024):
≈ marks a conversion by molar mass, not a printed value.

Experiments:
Candida albicans [1] = test: Antifungal activity against Candida albicans CGMCC 2.2086 assessed as inhibition of fungal growth incubated for 48 hrs; type: functional
Candida tropicalis = test: Antifungal activity against Candida tropicalis CGMCC 2.1975 assessed as inhibition of fungal growth incubated for 48 hrs; type: functional
Candida albicans [2] = test: Antifungal activity against Candida albicans SP3902 assessed as inhibition of fungal growth incubated for 48 hrs; type: functional
Candida albicans [3] = test: Antifungal activity against Candida albicans SP3903 assessed as inhibition of fungal growth incubated for 48 hrs; type: functional
Candida albicans [4] = test: Antifungal activity against Fluconazole-resistant Candida albicans 58288 assessed as inhibition of fungal growth incubated for 48 hrs; type: functional
Candida albicans [5] = test: Antifungal activity against Candida albicans SP3876 assessed as inhibition of fungal growth incubated for 48 hrs; type: functional
Candida albicans [6] = test: Antifungal activity against Candida albicans SP3931 assessed as inhibition of fungal growth incubated for 48 hrs; type: functional
Candida albicans [7] = test: Antifungal activity against Candida albicans 14936 assessed as inhibition of fungal growth incubated for 48 hrs; type: functional
Candida albicans [8] = test: Antifungal activity against Candida albicans 17546 assessed as inhibition of fungal growth incubated for 48 hrs; type: functional
Candida albicans [9] = test: Antifungal activity against Fluconazole-resistant Candida albicans 56214 assessed as inhibition of fungal growth incubated for 48 hrs; type: functional
Candida albicans [10] = test: Antifungal activity against Candida albicans 56452 assessed as inhibition of fungal growth incubated for 48 hrs; type: functional
Candida parapsilosis = test: Antifungal activity against Candida parapsilosis CGMCC 2.3989 assessed as inhibition of fungal growth incubated for 48 hrs; type: functional; details: Lodderomyces parapsilosis
[11] = Hemolytic activity in human red blood cells assessed as hemolysis incubated for 1 hr; type: toxicity, cell-based, Erythrocyte
[12] = Hemolytic activity in human red blood cells assessed as hemolysis rate at 512 uM incubated for 1 hr relative to control; type: toxicity, cell-based, Erythrocyte; details: read-out: Activity
Candida albicans [13] = test: Antifungal activity against Candida albicans CGMCC 2.2086 assessed as inhibition of fungal growth incubated for 48 hrs in presence of NaCl; type: functional
Candida albicans [14] = test: Antifungal activity against Candida albicans CGMCC 2.2086 assessed as inhibition of fungal growth incubated for 48 hrs in presence of KCl; type: functional
Candida albicans [15] = test: Antifungal activity against Candida albicans CGMCC 2.2086 assessed as inhibition of fungal growth incubated for 48 hrs in presence of NH4Cl; type: functional
Candida albicans [16] = test: Antifungal activity against Candida albicans CGMCC 2.2086 assessed as inhibition of fungal growth incubated for 48 hrs in presence of MgCl2; type: functional
Candida albicans [17] = test: Antifungal activity against Candida albicans CGMCC 2.2086 assessed as inhibition of fungal growth incubated for 48 hrs in presence of ZnCl2; type: functional
Candida albicans [18] = test: Antifungal activity against Candida albicans CGMCC 2.2086 assessed as inhibition of fungal growth incubated for 48 hrs in presence of FeCl3; type: functional
Candida albicans [19] = test: Antifungal activity against Candida albicans CGMCC 2.2086 assessed as inhibition of fungal growth incubated for 48 hrs in presence of CaCl2; type: functional
[20] = Stability of the compound in NaCl assessed as change in secondary structure by CD spectra analysis; type: physicochemical
[21] = Stability of the compound in KCl assessed as change in secondary structure by CD spectra analysis; type: physicochemical
[22] = Stability of the compound in NH4Cl assessed as change in secondary structure by CD spectra analysis; type: physicochemical
[23] = Stability of the compound in MgCl2 assessed as change in secondary structure by CD spectra analysis; type: physicochemical
[24] = Stability of the compound in ZnCl2 assessed as change in secondary structure by CD spectra analysis; type: physicochemical
[25] = Stability of the compound in FeCl3 assessed as change in secondary structure by CD spectra analysis; type: physicochemical
[26] = Stability of the compound in CaCl2 assessed as change in secondary structure by CD spectra analysis; type: physicochemical

CC(C)[C@H](N)C(=O)N[C@H](C(=O)N[C@H](CCCNC(=N)N)C(=O)N[C@@H](CCCNC(=N)N)C(=O)N[C@@H](Cc1c[nH]cn1)C(=O)N[C@H](C(=O)N[C@H](C(N)=O)C(C)C)C(C)C)C(C)C
MIC95 (Candida albicans [1]): > 64 µM | MIC95 (Candida tropicalis): 64 µM (≈ 55.2 µg/mL) | MIC95 (Candida albicans [2]): > 64 µM | MIC95 (Candida albicans [3]): > 64 µM | MIC95 (Candida albicans [4]): > 64 µM | MIC95 (Candida albicans [5]): > 64 µM | MIC95 (Candida albicans [6]): > 64 µM | MIC95 (Candida albicans [7]): > 64 µM | MIC95 (Candida albicans [8]): > 64 µM | MIC95 (Candida albicans [9]): > 64 µM | MIC95 (Candida albicans [10]): > 64 µM | MIC95 (Candida parapsilosis): > 64 µM | HC50 at 1 h [11]: > 512 µM | hemolysis at 1 h, 512 µM [12]: -0.02% | MIC95 (Candida albicans [13]): > 64 µM | MIC95 (Candida albicans [14]): > 64 µM | MIC95 (Candida albicans [15]): > 64 µM | MIC95 (Candida albicans [16]): > 64 µM | MIC95 (Candida albicans [17]): > 64 µM | MIC95 (Candida albicans [18]): > 64 µM | MIC95 (Candida albicans [19]): > 64 µM | Stability [20]: Unstable | Stability [21]: Stable | Stability [22]: Stable | Stability [23]: Stable | Stability [24]: Stable | Stability [25]: Stable | Stability [26]: Stable

CC(=O)N1CCN(c2ccc(OCC3COC(Cn4ccnc4)(c4ccc(Cl)cc4Cl)O3)cc2)CC1 (stereo unspecified) [KETOCONAZOLE]
MIC95 (Candida albicans [1]): 2 µM (≈ 1.06 µg/mL) | MIC95 (Candida tropicalis): 2 µM (≈ 1.06 µg/mL) | MIC95 (Candida albicans [2]): 2 µM (≈ 1.06 µg/mL) | MIC95 (Candida albicans [3]): 4 µM (≈ 2.13 µg/mL) | MIC95 (Candida albicans [4]): > 64 µM | MIC95 (Candida albicans [5]): 16 µM (≈ 8.5 µg/mL) | MIC95 (Candida albicans [6]): 4 µM (≈ 2.13 µg/mL) | MIC95 (Candida albicans [7]): 4 µM (≈ 2.13 µg/mL) | MIC95 (Candida albicans [8]): 2 µM (≈ 1.06 µg/mL) | MIC95 (Candida albicans [9]): > 64 µM | MIC95 (Candida albicans [10]): 1 µM (≈ 0.531 µg/mL) | MIC95 (Candida parapsilosis): 4 µM (≈ 2.13 µg/mL)

CC[C@H](C)[C@H](N)C(=O)N[C@H](C(=O)N[C@H](CCCNC(=N)N)C(=O)N[C@@H](CCCNC(=N)N)C(=O)N[C@@H](Cc1c[nH]cn1)C(=O)N[C@H](C(=O)N[C@H](C(N)=O)[C@@H](C)CC)[C@@H](C)CC)[C@@H](C)CC
MIC95 (Candida albicans [1]): > 64 µM | MIC95 (Candida tropicalis): 64 µM (≈ 58.8 µg/mL) | MIC95 (Candida albicans [2]): 64 µM (≈ 58.8 µg/mL) | MIC95 (Candida albicans [3]): > 64 µM | MIC95 (Candida albicans [4]): > 64 µM | MIC95 (Candida albicans [5]): > 64 µM | MIC95 (Candida albicans [6]): > 64 µM | MIC95 (Candida albicans [7]): > 64 µM | MIC95 (Candida albicans [8]): > 64 µM | MIC95 (Candida albicans [9]): > 64 µM | MIC95 (Candida albicans [10]): > 64 µM | MIC95 (Candida parapsilosis): > 64 µM | HC50 at 1 h [11]: > 512 µM | hemolysis at 1 h, 512 µM [12]: -1.57% | MIC95 (Candida albicans [13]): > 64 µM | MIC95 (Candida albicans [14]): > 64 µM | MIC95 (Candida albicans [15]): > 64 µM | MIC95 (Candida albicans [16]): > 64 µM | MIC95 (Candida albicans [17]): > 64 µM | MIC95 (Candida albicans [18]): > 64 µM | MIC95 (Candida albicans [19]): > 64 µM | Stability [20]: Unstable | Stability [21]: Stable | Stability [22]: Stable | Stability [23]: Stable | Stability [24]: Stable | Stability [25]: Stable | Stability [26]: Stable

CC[C@H](C)[C@H](N)C(=O)N[C@H](C(=O)N[C@H](CCCNC(=N)N)C(=O)N[C@@H](CCCNC(=N)N)C(=O)N[C@@H](Cc1c[nH]cn1)C(=O)N[C@H](C(=O)N[C@H](C(=O)N[C@H](C(=O)N[C@H](C(=O)N[C@H](CCCNC(=N)N)C(=O)N[C@@H](CCCNC(=N)N)C(=O)N[C@@H](Cc1c[nH]cn1)C(=O)N[C@H](C(=O)N[C@H](C(N)=O)[C@@H](C)CC)[C@@H](C)CC)[C@@H](C)CC)[C@@H](C)CC)[C@@H](C)CC)[C@@H](C)CC)[C@@H](C)CC
MIC95 (Candida albicans [1]): 16 µM (≈ 29.1 µg/mL) | MIC95 (Candida tropicalis): 2 µM (≈ 3.64 µg/mL) | MIC95 (Candida albicans [2]): 8 µM (≈ 14.6 µg/mL) | MIC95 (Candida albicans [3]): 64 µM (≈ 117 µg/mL) | MIC95 (Candida albicans [4]): 32 µM (≈ 58.3 µg/mL) | MIC95 (Candida albicans [5]): 32 µM (≈ 58.3 µg/mL) | MIC95 (Candida albicans [6]): 16 µM (≈ 29.1 µg/mL) | MIC95 (Candida albicans [7]): 32 µM (≈ 58.3 µg/mL) | MIC95 (Candida albicans [8]): 64 µM (≈ 117 µg/mL) | MIC95 (Candida albicans [9]): 64 µM (≈ 117 µg/mL) | MIC95 (Candida albicans [10]): 32 µM (≈ 58.3 µg/mL) | MIC95 (Candida parapsilosis): 32 µM (≈ 58.3 µg/mL) | HC50 at 1 h [11]: > 512 µM | hemolysis at 1 h, 512 µM [12]: 1.84% | MIC95 (Candida albicans [13]): > 64 µM | MIC95 (Candida albicans [14]): 32 µM | MIC95 (Candida albicans [15]): 32 µM | MIC95 (Candida albicans [16]): 64 µM | MIC95 (Candida albicans [17]): 64 µM | MIC95 (Candida albicans [18]): 64 µM | MIC95 (Candida albicans [19]): > 64 µM | Stability [20]: Unstable | Stability [21]: Stable | Stability [22]: Stable | Stability [23]: Stable | Stability [24]: Stable | Stability [25]: Stable | Stability [26]: Stable
